From ChEMBL document CHEMBL1201862, “PubChem BioAssay data set” (2004)
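Cultured in 96-well plates, cells were exposed to test compound for 48 hours across five concentrations. GI50: concentration for 50% inhibition of growth.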 Active and inactive are the calls of the source. Cut-off read from the data, not from the text of the source: active = GI50 up to about 1.1 µM and inactive = higher.

How the values were obtained:
Test in all cases: NCI-60 cell line screen, 48 h
K562 = system: K562
DMS-114 = system: DMS-114
SK-MEL-28 = system: SK-MEL-28
SW-620 = system: SW-620
SF-268 = system: SF-268
NCI-H226 = system: NCI-H226
LXFL 529 = system: LXFL 529
DMS-273 = system: DMS-273
SF-539 = system: SF-539
Malme-3M = system: Malme-3M
SK-OV-3 = system: SK-OV-3
HL-60 = system: HL-60
SNB-75 = system: SNB-75
HCT-15 = system: HCT-15
IGROV-1 = system: IGROV-1
RPMI-8226 = system: RPMI-8226
A549 = system: A549
SN12C = system: SN12C
COLO 205 = system: COLO 205
M19-MEL = system: M19-MEL
UO-31 = system: UO-31
SNB-78 = system: SNB-78
OVCAR-4 = system: OVCAR-4
A498 = system: A498
SK-MEL-5 = system: SK-MEL-5
HCC 2998 = system: HCC 2998
U-251 = system: U-251
HT-29 = system: HT-29
NCI-H23 = system: NCI-H23
DLD-1 = system: DLD-1
CCRF-CEM = system: CCRF-CEM
RXF 393 = system: RXF 393
SR = system: SR
M14 = system: M14
786-0 = system: 786-0
SNB-19 = system: SNB-19
UACC-62 = system: UACC-62
OVCAR-8 = system: OVCAR-8
EKVX = system: EKVX
SF-295 = system: SF-295
ACHN = system: ACHN
HOP-18 = system: HOP-18
HCT-116 = system: HCT-116
NCI-H522 = system: NCI-H522
MOLT-4 = system: MOLT-4
HOP-62 = system: HOP-62
KM-20L2 = system: KM-20L2
HOP-92 = system: HOP-92
UACC-257 = system: UACC-257
LOX IMVI = system: LOX IMVI
NCI/ADR-RES = system: NCI/ADR-RES
KM12 = system: KM12
SK-MEL-2 = system: SK-MEL-2
MCF7 = system: MCF7
OVCAR-5 = system: OVCAR-5
OVCAR-3 = system: OVCAR-3
CAKI-1 = system: CAKI-1
NCI-H460 = system: NCI-H460

## O=C1c2ccccc2N2Oc3ccccc3C12c1ccccc1 (stereo unspecified)
K562
  GI50: > 100 µM (inactive)
DMS-114
  GI50: > 100 µM (inactive)
SK-MEL-28
  GI50: > 100 µM (inactive)
SW-620
  GI50: > 100 µM (inactive)
SF-268
  GI50: > 100 µM (inactive)
NCI-H226
  GI50: 59.4 µM (inactive)
LXFL 529
  GI50: > 100 µM (inactive)
DMS-273
  GI50: > 100 µM (inactive)
SF-539
  GI50: > 100 µM (inactive)
Malme-3M
  GI50: > 100 µM (inactive)
SK-OV-3
  GI50: > 100 µM (inactive)
HL-60
  GI50: > 100 µM (inactive)
SNB-75
  GI50: > 100 µM (inactive)
HCT-15
  GI50: > 100 µM
IGROV-1
  GI50: > 100 µM (inactive)
RPMI-8226
  GI50: > 100 µM (inactive)
A549
  GI50: > 100 µM (inactive)
SN12C
  GI50: > 100 µM (inactive)
COLO 205
  GI50: > 100 µM (inactive)
M19-MEL
  GI50: > 100 µM (inactive)
UO-31
  GI50: > 100 µM (inactive)
SNB-78
  GI50: > 100 µM (inactive)
OVCAR-4
  GI50: > 100 µM (inactive)
A498
  GI50: > 100 µM (inactive)
SK-MEL-5
  GI50: > 100 µM (inactive)
HCC 2998
  GI50: > 100 µM (inactive)
U-251
  GI50: > 100 µM (inactive)
HT-29
  GI50: > 100 µM (inactive)
NCI-H23
  GI50: > 100 µM (inactive)
DLD-1
  GI50: > 10 µM (inactive)
CCRF-CEM
  GI50: > 100 µM (inactive)
RXF 393
  GI50: > 100 µM (inactive)
SR
  GI50: > 100 µM (inactive)
M14
  GI50: > 100 µM (inactive)
786-0
  GI50: > 100 µM (inactive)
SNB-19
  GI50: > 100 µM (inactive)
UACC-62
  GI50: > 100 µM (inactive)
OVCAR-8
  GI50: > 100 µM (inactive)
EKVX
  GI50: > 100 µM (inactive)
SF-295
  GI50: > 100 µM (inactive)
ACHN
  GI50: > 100 µM (inactive)
HOP-18
  GI50: > 100 µM (inactive)
HCT-116
  GI50: > 100 µM (inactive)
NCI-H522
  GI50: > 100 µM (inactive)
MOLT-4
  GI50: > 100 µM (inactive)
HOP-62
  GI50: > 100 µM (inactive)
KM-20L2
  GI50: > 100 µM (inactive)
HOP-92
  GI50: 92.7 µM (inactive)
UACC-257
  GI50: > 100 µM (inactive)

## CC(=O)OCC1OC(Nc2ncc(-c3ccc(C)cc3)s2)C(OC(C)=O)C(OC(C)=O)C1OC(C)=O (stereo unspecified)
K562
  GI50: 34.2 µM (inactive)
LOX IMVI
  GI50: 26.9 µM (inactive)
DMS-114
  GI50: 35.6 µM (inactive)
SK-MEL-28
  GI50: 39.1 µM (inactive)
SW-620
  GI50: 74.5 µM (inactive)
SF-268
  GI50: 45.5 µM (inactive)
NCI-H226
  GI50: 25.2 µM (inactive)
DMS-273
  GI50: > 58.9 µM (inactive)
SF-539
  GI50: 43.8 µM (inactive)
Malme-3M
  GI50: 61.5 µM (inactive)
SK-OV-3
  GI50: 68.4 µM (inactive)
HL-60
  GI50: 21 µM (inactive)
SNB-75
  GI50: 39 µM (inactive)
HCT-15
  GI50: 37.5 µM
IGROV-1
  GI50: 66.5 µM (inactive)
RPMI-8226
  GI50: 24.7 µM (inactive)
NCI/ADR-RES
  GI50: 26.3 µM (inactive)
A549
  GI50: 44.5 µM (inactive)
KM12
  GI50: 36.1 µM (inactive)
SN12C
  GI50: 25.4 µM (inactive)
COLO 205
  GI50: 40.5 µM (inactive)
SK-MEL-2
  GI50: 34 µM (inactive)
M19-MEL
  GI50: 18.8 µM (inactive)
UO-31
  GI50: 19.8 µM (inactive)
SNB-78
  GI50: 40.8 µM (inactive)
MCF7
  GI50: 13.3 µM (inactive)
OVCAR-4
  GI50: 27 µM (inactive)
A498
  GI50: 48.2 µM (inactive)
SK-MEL-5
  GI50: 33.3 µM (inactive)
OVCAR-5
  GI50: 38.1 µM (inactive)
HCC 2998
  GI50: 23.3 µM (inactive)
OVCAR-3
  GI50: 31.6 µM (inactive)
U-251
  GI50: 56.8 µM (inactive)
HT-29
  GI50: 29.2 µM (inactive)
NCI-H23
  GI50: 50.7 µM (inactive)
CAKI-1
  GI50: 29 µM (inactive)
DLD-1
  GI50: 54.1 µM (inactive)
CCRF-CEM
  GI50: 29.1 µM (inactive)
RXF 393
  GI50: 47.3 µM (inactive)
SNB-19
  GI50: > 100 µM (inactive)
UACC-62
  GI50: 27 µM (inactive)
OVCAR-8
  GI50: 39.7 µM (inactive)
EKVX
  GI50: 54 µM (inactive)
SF-295
  GI50: 43.2 µM (inactive)
HOP-18
  GI50: 35.8 µM (inactive)
HCT-116
  GI50: 26.6 µM (inactive)
NCI-H522
  GI50: 64.9 µM (inactive)
NCI-H460
  GI50: 31.5 µM (inactive)
MOLT-4
  GI50: 24.6 µM (inactive)
HOP-62
  GI50: 52 µM (inactive)
HOP-92
  GI50: 42.6 µM (inactive)
UACC-257
  GI50: 25.6 µM (inactive)
